The term IC50 denotes the midpoint of a concentration-inhibition curve. A higher IC50 goes with weaker potency.

The source of these data is patent US9981916B2 (Genentech, Inc., priority 2013, dated 2018).

The target in the assay is T1, RORc ligand binding domain (Homo sapiens, UniProt P51449).
T1 construct: host or cells: E. coli
T1 sequence (P51449 269-508 limits assumed): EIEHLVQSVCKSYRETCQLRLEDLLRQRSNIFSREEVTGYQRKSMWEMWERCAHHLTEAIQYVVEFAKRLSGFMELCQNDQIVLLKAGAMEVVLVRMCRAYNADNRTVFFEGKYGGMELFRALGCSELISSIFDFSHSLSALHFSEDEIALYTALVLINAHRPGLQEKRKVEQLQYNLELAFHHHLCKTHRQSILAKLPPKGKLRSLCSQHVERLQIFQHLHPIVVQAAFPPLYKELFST
Nature of the assay: In vitro RORc ligand binding assay (25-[3H]hydroxycholesterol displacement, filter binding). The settings on record: 6 nM 25-[3H]hydroxycholesterol, 0.6 ug/mL RORc receptor, 3 h at 25° C. In short, it runs like this:
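Filter-binding displacement of 6 nM 25-[3H]hydroxycholesterol from RORc receptor (0.6 ug/mL) in 50 mM HEPES pH 7.4, 150 mM NaCl, 5 mM MgCl2, 1 mM DTT, 0.01% BSA, 5% DMSO; 3 h at 25° C. NSB defined with 1 uM 25-hydroxycholesterol; scintillation counting gave Kiapp, IC50 or % inhibition (screening at 1 and 10 uM).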
As for `Cc1nnc(N(C)C[C@@]23CC[C@@H](c4cc(-c5c(F)cccc5F)nnc42)C3(C)C)o1` [Example 146, N-(((5R,8S)-3-(2,6-difluorophenyl)-9,9-dimethyl-5,6,7,8-tetrahydro-5,8-methanocinnolin-8-yl)methyl)-N,5-dimethyl-1,3,4-oxadiazol-2-amine], the IC50 was determined as 11 nM. The same measure for `CC1(C)[C@H]2CC[C@]1(C(=O)N1CC3CC3C1)c1nnc(-c3c(F)cccc3F)cc12` (stereo partly drawn) [Example 147, 3-azabicyclo[3.1.0]hexan-3-yl((5R,8R)-3-(2,6-difluorophenyl)-9,9-dimethyl-5,6,7,8-tetrahydro-5,8-methanocinnolin-8-yl)methanone]: 8 nM; for `CCN(C[C@@]12CC[C@@H](c3cc(-c4c(F)cccc4F)nnc31)C2(C)C)c1nnc(C)o1` [Example 148, N-(((5R,8S)-3-(2,6-difluorophenyl)-9,9-dimethyl-5,6,7,8-tetrahydro-5,8-methanocinnolin-8-yl)methyl)-N-ethyl-5-methyl-1,3,4-oxadiazol-2-amine]: 19 nM; for `COCCN(C[C@@]12CC[C@@H](c3cc(-c4c(F)cccc4F)nnc31)C2(C)C)c1nnc(C)o1` [Example 149, N-(((5R,8S)-3-(2,6-difluorophenyl)-9,9-dimethyl-5,6,7,8-tetrahydro-5,8-methanocinnolin-8-yl)methyl)-N-(2-methoxyethyl)-5-methyl-1,3,4-oxadiazol-2-amine]: 54 nM. As for `Cc1nnc(N(C[C@@]23CC[C@@H](c4cc(-c5c(F)cccc5F)nnc42)C3(C)C)C(C)C)o1` [Example 152, N-(((5R,8S)-3-(2,6-difluorophenyl)-9,9-dimethyl-5,6,7,8-tetrahydro-5,8-methanocinnolin-8-yl)methyl)-N-isopropyl-5-methyl-1,3,4-oxadiazol-2-amine], the figure is 19 nM; as for `CC1(C)[C@H]2CC[C@]1(c1ccccn1)c1nnc(-c3c(F)cccc3F)cc12` [Example 153], 24 nM. The same measure for `CC1(C)[C@H]2CC[C@]1(c1cccnc1)c1nnc(-c3c(F)cccc3F)cc12` [Example 154, (5R,8S)-3-(2,6-difluorophenyl)-9,9-dimethyl-8-(pyridin-3-yl)-5,6,7,8-tetrahydro-5,8-methanocinnoline]: 23 nM; for `Cc1nnc(N(CCO)C[C@@]23CC[C@@H](c4cc(-c5c(F)cccc5F)nnc42)C3(C)C)o1` [Example 155, 2-((((5R,8S)-3-(2,6-difluorophenyl)-9,9-dimethyl-5,6,7,8-tetrahydro-5,8-methanocinnolin-8-yl)methyl)(5-methyl-1,3,4-oxadiazol-2-yl)amino)ethanol]: 67 nM; for `CCN(C[C@@]12CC[C@@H](c3cc(-c4c(F)cccc4F)nnc31)C2(C)C)S(C)(=O)=O` [Example 156, N-(((5R,8S)-3-(2,6-difluorophenyl)-9,9-dimethyl-5,6,7,8-tetrahydro-5,8-methanocinnolin-8-yl)methyl)-N-ethylmethanesulfonamide]: 46 nM.

In turn, `CCN(C[C@@]12CC[C@@H](c3cc(-c4c(F)cccc4F)nnc31)C2(C)C)C(C)=O` [Example 157, N-(((5R,8S)-3-(2,6-difluorophenyl)-9,9-dimethyl-5,6,7,8-tetrahydro-5,8-methanocinnolin-8-yl)methyl)-N-ethylacetamide] showed a 50% inhibitory concentration (IC50) of 19 nM.

Turning to `CCN(C[C@@]12CC[C@@H](c3cc(-c4c(F)cccc4F)nnc31)C2(C)C)C(=O)c1cc(C)on1` [Example 158, N-(((5R,8S)-3-(2,6-difluorophenyl)-9,9-dimethyl-5,6,7,8-tetrahydro-5,8-methanocinnolin-8-yl)methyl)-N-ethyl-5-methylisoxazole-3-carboxamide], the IC50 stood at 6 nM. As for `CCN(C[C@@]12CC[C@@H](c3cc(-c4c(F)cccc4F)nnc31)C2(C)C)C(N)=O` [Example 159, 1-(((5R,8S)-3-(2,6-difluorophenyl)-9,9-dimethyl-5,6,7,8-tetrahydro-5,8-methanocinnolin-8-yl)methyl)-1-ethylurea], the figure is 26 nM.
